Like-named read-outs stand apart in the source and are kept apart here. Marks after values point to notes of the source that are not given here.
Legend:
[1] = test system: S. aureus MRSA R98; assay: MIC/MBC microdilution; format: cell-based, Staphylococcus aureus; conditions: for MBC / MIC: Staphylococcus aureus, MRSA; for MBC: read-out: Minimal bactericidal concentration (*MBC); for MIC: read-out: Minimal inhibitory concentration (MIC)
Experimental: (§1) The minimum inhibitory concentration (MIC) of the tested monomeric QAS was performed using the microdilution method according to CLSI recommendation (M27-A3). Concentrations from 10 to 1280 µM were analyzed. Strains were incubated with or without compounds (growth control) for 24 h at 37 °C. Three independent replicates were performed. The MIC value was determined spectrophotometrically and the concentration that inhibited more than 90% of growth was determined. Optical density was measured at λ = 590 nm using a 96-well microplate reader (Bio-Rad Universal Hood II).
(§2) To determine the minimum bactericidal concentration (MBC), 10 µL of bacterial suspension incubated with monomeric QAS (MIC concentration and two times higher) was transferred to plates with LB (1% tryptone, 1% yeast extract, 0.5% NaCl) medium. […] The concentration that reduced 99.9% of microbial growth was determined as MBC[54].

[2] = test system: S. aureus ATCC 6538; assay: MIC/MBC microdilution; format: cell-based, Staphylococcus aureus; conditions: for MIC: 24 h, 37 °C, >90% growth inhibition, read-out: Minimal inhibitory concentration (MIC); for MBC: 99.9% reduction, read-out: Minimal bactericidal concentration (*MBC)
Experimental: as §1, §2

[3] = test system: S. epidermidis ATCC 35984 biofilm; assay: Biofilm eradication; format: cell-based, Staphylococcus epidermidis; conditions: 10 µM, 4 h
Experimental: (§3) Biofilm eradication assay was performed according to the method of Christensen et al. with modifications. A standardized bacterial (OD = 0.6) suspension of 100 µL was spotted into a 96-well polystyrene plate. They were incubated for 24 h at 37 °C. Cultures were removed, the plate was washed and then concentrations of QAS ([…]) were added, incubated for 4 h at 37 °C with 100 rpm shaking. The wells were washed with miliQ and fixed at 60 °C for 20 min. The wells were […] with 0.1% crystal violet solution for 5 min. The wells were washed with miliQ until the unfixed dye was completely eluted. The absorbance at λ = 590 nm was measured using a reader (Bio-Rad Universal Hood II). The positive control was an untreated biofilm. Three independent test trials were performed.

[4] = test system: Salmonella typhimurium TA98; assay: Mutagenicity (Ames test); format: cell-based; conditions: for Number of colonies: ± SD
Experimental: (§4) Two reference strains of Salmonella Typhimurium TA98 and Salmonella Typhimurium TA100, deficient in histidine synthesis, were used for this study according to the method proposed by Ames et al. with modifications. […] The mixture was mixed and poured onto a Davis minimal medium plate. The mixture without the test compound was used as a negative control. The positive control was a mixture of bacterial culture, biotin-histidine solution, and sodium azide (at a concentration of 15 μg/mL for strain TA100) or acriflavine (at a concentration of 100 μg/mL for strain TA98). Plates were incubated for 48 h at 37 °C, and then colonies were counted. The mutagenicity ratio (MR), the ratio of the number of revertants grown in the presence of the test compound to the number of spontaneously occurring revertants (negative control), was calculated. A mutagenic ratio equal to or greater than 1.7 indicates the mutagenic potential of the tested compounds. The study was performed in three times.

[5] = test system: Salmonella typhimurium TA100; assay: Mutagenicity (Ames test); format: cell-based; conditions: for Number of colonies: ± SD
Experimental: as §4

[6] = Critical micelle concentration by conductometric measurements; format: physicochemical; conditions: aqueous solution, 25 °C
Experimental: Values of critical micelle concentrations (CMC) of cationic surfactants were measured conductrometrically. N5721 conductometer (Tel-Eko Projekt sp z o.o., Poland), equipped with N5981 probe, was calibrated using 0.1 M, 0.01 M and 0.001 M KCl aqueous solutions (conductivities equal to 1.287 S/m, 0.141 S/m and 0.0147 S/m, respectively) and used without temperature compensation mode (constant temperature 25 °C was kept during all calibration procedures and measurements). Values of specific conductivities of at least 15 different concentrations for each surfactant were measured and plotted versus concentration; the discontinuity point was used to determine critical micelle concentration.

[7] = test system: S. epidermidis ATCC 35984; assay: MIC/MBC microdilution; format: cell-based, Staphylococcus epidermidis; conditions: for MBC: read-out: Minimal bactericidal concentration (*MBC); for MIC: 37 °C, >90% growth inhibition, read-out: Minimal inhibitory concentration (MIC)
Experimental: as §1, §2

[8] = test system: S. epidermidis SI8; assay: MIC/MBC microdilution; format: cell-based, Staphylococcus epidermidis; conditions: for MBC: 99.9% reduction, read-out: Minimal bactericidal concentration (*MBC); for MIC: 24 h, 37 °C, >90% growth inhibition, read-out: Minimal inhibitory concentration (MIC)
Experimental: as §1, §2

[9] = test system: S. epidermidis B374; assay: MIC/MBC microdilution; format: cell-based, Staphylococcus epidermidis
Experimental: as §1, §2

[10] = test system: S. epidermidis ATCC 35984; assay: Adhesion to stainless steel; format: cell-based, Staphylococcus epidermidis; conditions: 1280 µM
[11] = test system: P. aeruginosa ATCC 27853; assay: MIC/MBC microdilution; format: cell-based, Pseudomonas aeruginosa; conditions: for MIC / MBC: Pseudomonas aeruginosa; for MIC: ATCC27853, 24 h, read-out: Minimal inhibitory concentration (MIC); for MBC: ATCC27853, P. aeruginosa ATCC 27853, read-out: Minimal bactericidal concentration (*MBC)
Experimental: as §1, §2

[12] = test system: P. aeruginosa PAO1; assay: MIC/MBC microdilution; format: cell-based, Pseudomonas aeruginosa; conditions: for MBC / MIC: Pseudomonas aeruginosa; for MBC: read-out: Minimal bactericidal concentration (*MBC); for MIC: read-out: Minimal inhibitory concentration (MIC)
Experimental: as §1, §2

[13] = test system: E. coli ATCC 11229; assay: MIC/MBC microdilution; format: cell-based, Escherichia coli
Experimental: as §1, §2

[14] = test system: E. coli H64; assay: MIC/MBC microdilution; format: cell-based, Escherichia coli; conditions: for MIC / MBC: Escherichia coli; for MIC: H64, 24 h, read-out: Minimal inhibitory concentration (MIC); for MBC: H64, E. coli H64, read-out: Minimal bactericidal concentration (*MBC)
Experimental: as §1, §2

[15] = test system: P. aeruginosa PAO1; assay: Adhesion to stainless steel; format: cell-based, Pseudomonas aeruginosa; conditions: P. aeruginosa PAO1; 1280 µM
[16] = test system: S. epidermidis B374 biofilm; assay: Biofilm eradication; format: cell-based, Staphylococcus epidermidis; conditions: 160 µM, 4 h
Experimental: as §3

[17] = test system: S. epidermidis ATCC 35984; assay: Adhesion to polystyrene plate; format: cell-based, Staphylococcus epidermidis; conditions: 1280 µM, range given over two strains
Experimental: (§5) Adhesion analysis to polystyrene surfaces was determined according to the method of Rodrigues et al. with modifications. Polystyrene 96-well plates were incubated with the respective compound concentrations (10–1280 µM) for 4 h at 37 °C with 100 rpm shaking. The plates were then washed with miliQ and inoculated with 100 µL of bacterial suspension (OD = 0.4–0.6). Plates were incubated for 6 h at 37 °C with 100 rpm shaking. Wells were rinsed and fixed for 20 min at 60 °C. They were then […] with 0.1% crystal violet solution for 5 min. The wells were washed with miliQ until the unfixed dye was completely eluted. The absorbance at λ = 590 nm was measured using a reader (Bio-Rad Universal Hood II). The positive control was a surface not treated with QAS. Three independent trials were performed.

[18] = test system: S. epidermidis B374; assay: Adhesion to polystyrene plate; format: cell-based, Staphylococcus epidermidis; conditions: 1280 µM
Experimental: as §5

[19] = test system: S. epidermidis B374; assay: Adhesion to stainless steel; format: cell-based, Staphylococcus epidermidis; conditions: 1280 µM, ranges given over several strains
[20] = test system: P. aeruginosa PAO1; assay: Adhesion to glass; format: cell-based, Pseudomonas aeruginosa; conditions: concentration not given
[21] = 24 h, 37 °C, >90% growth inhibition
[22] = Staphylococcus aureus, ATCC6538, 24 h, S. aureus ATCC 6538
[23] = Staphylococcus aureus, ATCC6538, S. aureus ATCC 6538
[24] = Staphylococcus epidermidis, ATCC35984, 99.9% reduction
[25] = Staphylococcus epidermidis, ATCC35984, 24 h
[26] = P. aeruginosa ATCC 27853, 24 h, 37 °C, >90% growth inhibition
[27] = E. coli H64, 24 h, 37 °C, >90% growth inhibition
[28] = E. coli ATCC 11229, 99.9% reduction
[29] = E. coli ATCC 11229, 24 h, 37 °C, >90% growth inhibition

Compound	MBC ([1]; 99.9% reduction)	MIC [1, 21]	MIC [2, 22]	MBC [2, 23]	Mutagenicity index ([4]; ¼ MIC)	Number of colonies ([4]; ¼ MIC)	Mutagenicity index ([4]; ½ MIC)	Number of colonies ([4]; ½ MIC)	Mutagenicity index ([5]; ¼ MIC)	Number of colonies ([5]; ¼ MIC)	Mutagenicity index ([5]; ½ MIC)	Number of colonies ([5]; ½ MIC)	CMC [6]	MBC [7, 24]	MIC [7, 25]	MBC ([8]; Staphylococcus epidermidis)	MIC ([8]; Staphylococcus epidermidis)	adhesion to stainless steel (remaining) [10]	MIC [11, 26]	MBC ([11]; 99.9% reduction)	other results
CC(=O)[O-].CCCCCCCCCCCC(=O)N(C)CCC[N+](C)(C)C [AcC12]	640 µM	640 µM	1280 µM	1280 µM	0.96	22 ± 5.3	0.91	20.8 ± 4.4	0.94	264.7 ± 15	1.08	304 ± 11.3	0.018 mol/L	640 µM	640 µM	640 µM	640 µM	13 to 30%	> 1280 µM	> 1280 µM	biofilm destruction [3]: approximately 40%; MIC ([9]; Staphylococcus epidermidis, B374, 24 h, S. epidermidis B374, 24 h, 37 °C, >90% growth inhibition, read-out: Minimal inhibitory concentration (MIC)): 320 µM; MBC ([9]; Staphylococcus epidermidis, B374, S. epidermidis B374, 99.9% reduction, read-out: Minimal bactericidal concentration (*MBC)): 320 µM; MBC ([12]; 99.9% reduction): > 1280 µM; MIC [12, 21]: > 1280 µM; MIC ([13]; Escherichia coli, ATCC11229, 24 h, E. coli ATCC 11229, 24 h, 37 °C, >90% growth inhibition, read-out: Minimal inhibitory concentration (MIC)): 1280 µM; MBC ([13]; Escherichia coli, ATCC11229, E. coli ATCC 11229, 99.9% reduction, read-out: Minimal bactericidal concentration (*MBC)): 1280 µM; MIC [14, 27]: 1280 µM; MBC ([14]; 99.9% reduction): 1280 µM; adhesion to stainless steel (remaining) [15]: 13 to 30%
CC(=O)[O-].CCCCCCCCCCCCCC(=O)N(C)CCC[N+](C)(C)C [AcC14, [(3-tetradecyilomethylo-amine)propyl] trimethylammonium acetate]	160 µM	160 µM	160 µM	160 µM	0.96	24.5 ± 3.5	1.01	25.7 ± 4	0.97	194 ± 1	0.95	189 ± 1.4	0.0054 mol/L	160 µM	160 µM	160 µM	160 µM	15%	1280 µM	> 1280 µM	biofilm eradication [16]: 70–80%; Minimal bactericidal concentration (*MBC) ([9]; S. epidermidis B374, 99.9% reduction): 40 *40 µM; Minimal inhibitory concentration (MIC) ([9]; S. epidermidis B374, 24 h, 37 °C, >90% growth inhibition): 40 *40 µM; MBC ([12]; 99.9% reduction): > 1280 µM; MIC [12, 21]: > 1280 µM; Minimal bactericidal concentration (*MBC) [13, 28]: 320 *320 µM; Minimal inhibitory concentration (MIC) [13, 29]: 320 *320 µM; MIC [14, 27]: 160 µM; MBC ([14]; 99.9% reduction): 160 µM
CCCCCCCCCCCCN(C)CCC[N+](C)(C)C.COC(=O)[O-] [MeC12, [(3-dodecyilomethyloamine)propyl] trimethylammonium methylcarbonate]	–	–	–	–	0.75	17 ± 3.6	0.92	21 ± 3.6	0.74	208 ± 17	0.94	264 ± 11.3	0.014 mol/L	–	–	–	–	–	–	–	Minimal bactericidal concentration (*MBC) ([1]; 99.9% reduction): 640 *640 µM; Minimal inhibitory concentration (MIC) [1, 21]: 640 *640 µM; MBC ([2]; S. aureus ATCC 6538): 640 µM; MIC ([2]; S. aureus ATCC 6538): 320 µM; reduced adhesion to polystyrene [17]: 25–46%; reduced adhesion to polystyrene [18]: 25–46%; MBC ([7]; 99.9% reduction): 640 µM; MIC ([7]; 24 h): 320 µM; MBC [8]: 640 µM; MIC [8]: 320 µM; inhibition of adhesion to stainless steel [19]: 69–88%; reduction of adhesion to glass [20]: approximately 20%; Minimal bactericidal concentration (*MBC) ([11]; P. aeruginosa ATCC 27853, 99.9% reduction): > 1280 * > 1280 µM; Minimal inhibitory concentration (MIC) [11, 26]: > 1280 * > 1280 µM; Minimal bactericidal concentration (*MBC) ([12]; 99.9% reduction): > 1280 * > 1280 µM; Minimal inhibitory concentration (MIC) [12, 21]: > 1280 * > 1280 µM; Minimal bactericidal concentration (*MBC) [13, 28]: 640 *640 µM; Minimal inhibitory concentration (MIC) [13, 29]: 640 *640 µM; Minimal bactericidal concentration (*MBC) ([14]; E. coli H64, 99.9% reduction): 640 *640 µM; Minimal inhibitory concentration (MIC) [14, 27]: 640 *640 µM

Reference: article PMC9757636, “The effectiveness of newly synthesized quaternary ammonium salts differing in chain length and type of counterion against priority human pathogens” (Scientific Reports, 2022)
